Where a chain is given by its changes, count along the chain named.

Assay type in all cases: cell-based
One experiment concerns LNCaP cells. In words: Inhibition of LNCaP cell proliferation (WST-8). Conditions: Homo sapiens, LNCaP FGC cells, 96 hours. As for the experimental part:
The inhibitory activity of compounds disclosed in the present invention on LNCaP cell proliferation
The cells were cultured overnight in a 37°C, 5% CO2 cell incubator. […] The final concentration of the compound was 9 concentration points of 5-fold serial dilution starting from 10 µM. […] The cells were cultured in a cell culture incubator at 37°C and 5% CO2 for 96 hours. On the sixth day, the 96-well cell culture plate was removed, and 1/10 volume of WST-8 (Beytime, C0040) reagent was added to each well. The absorbance at 450 nm was detected using a microplate reader (TECAN, F50).

Experiment [1] deals with T1, AR protein (Homo sapiens, UniProt P10275, T878A).
T1 construct: host or cells: LNCaP FGC
T1 sequence (P10275 1-920 T878A): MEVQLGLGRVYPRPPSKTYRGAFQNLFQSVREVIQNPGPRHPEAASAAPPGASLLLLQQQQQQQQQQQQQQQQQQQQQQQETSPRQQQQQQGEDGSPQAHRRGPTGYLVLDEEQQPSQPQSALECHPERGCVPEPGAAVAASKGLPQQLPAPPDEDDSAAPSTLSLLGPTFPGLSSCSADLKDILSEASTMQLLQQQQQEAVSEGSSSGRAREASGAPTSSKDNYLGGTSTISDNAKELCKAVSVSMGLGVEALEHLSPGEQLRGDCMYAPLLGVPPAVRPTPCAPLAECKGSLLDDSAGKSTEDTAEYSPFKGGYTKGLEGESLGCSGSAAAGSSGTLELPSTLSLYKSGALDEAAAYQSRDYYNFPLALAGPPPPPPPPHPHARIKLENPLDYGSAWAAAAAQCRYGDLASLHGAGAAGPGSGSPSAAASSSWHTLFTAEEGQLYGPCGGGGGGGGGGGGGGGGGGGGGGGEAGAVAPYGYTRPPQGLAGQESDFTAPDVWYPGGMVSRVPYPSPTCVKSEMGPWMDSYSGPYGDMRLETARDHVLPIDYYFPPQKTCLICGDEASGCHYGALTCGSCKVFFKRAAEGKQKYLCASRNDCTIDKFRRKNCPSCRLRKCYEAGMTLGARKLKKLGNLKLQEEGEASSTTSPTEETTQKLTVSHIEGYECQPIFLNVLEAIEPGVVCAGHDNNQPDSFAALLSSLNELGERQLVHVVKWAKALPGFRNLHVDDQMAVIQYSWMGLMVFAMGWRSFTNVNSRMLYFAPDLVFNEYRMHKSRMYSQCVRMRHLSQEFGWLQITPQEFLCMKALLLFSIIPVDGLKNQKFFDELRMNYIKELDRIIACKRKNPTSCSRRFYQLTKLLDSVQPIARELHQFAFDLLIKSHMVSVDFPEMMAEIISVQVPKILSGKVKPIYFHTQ
The experiment in a line: AR protein degradation in LNCaP cells (Western blot). Conditions: 8 hours. As for the experimental part: At the same time, the corresponding solvent control was set and cultured for 8 hours. After 8 hours of culture, the culture medium was removed, the cells were washed with PBS, and RIPA lysis buffer containing 1% Protease Inhibitor Cocktail was added. After lysis and centrifugation, the total protein extract was obtained, and the protein concentration in the extract was detected by BCA method. Protein electrophoresis was performed using SDS-PAGE, and then the protein was transferred to a PVDF (Millipore Sigma catalog number PSRP010R5) membrane at a constant voltage of 100V for 60 minutes. The PVDF membrane was placed in a 5% milk powder 1 ×TBST solution and blocked at room temperature for 1 hour. […] The primary antibody solution was discarded and the PVDF membrane was washed with 1×TBST for 5 minutes each time, for three times. […] The secondary antibody solution was discarded and the PVDF membrane was washed with 1 ×TBST for 5 minutes each time, for three times. A dual-color infrared laser imaging system (Licor catalog number Odyssey CLX) was used for Western membrane imaging. The Image Studio software was used to analyze the grayscale of the bands. GAPDH protein bands were also detected for each sample as the reference. The AR protein degradation rate of the compound and the positive control sample was calculated based on the grayscale of the protein bands.
A general note: Immunoblotting shows a protein as a band on a membrane.

The target in experiment [2] is T2, AR protein (Homo sapiens, UniProt P10275).
T2 construct: host or cells: VCaP
T2 sequence (P10275 1-920): T1 sequence (P10275 1-920 T878A) with A878T
The experiment in a line: AR protein degradation in VCaP cells (Western blot). Conditions: 8h. As for the experimental part: The degradation activity of the compounds disclosed in the present invention on AR protein in VCaP cells (cell source: ATCC)
The AR-positive human prostate cancer cells VCaP cultured in DMEM (GiBco catalog number 11995-065) containing 10% FBS (Hyclone catalog number SH30406.05) was inoculated in a six-well microplate (Thermo catalog number 140675) at a concentration of 3×10^5 cells/ well. After being cultured overnight in a carbon dioxide incubator (ESCO), the prepared compound of the present invention and the positive control sample ARV-766 (Annaiji) solution of different concentrations were added at a volume of 1 µL/well to make the final concentrations of the compound and the positive control sample reach 5nM and 0.5nM, respectively. At the same time, the corresponding solvent control was set and cultured for 8h. After 8h of culture, the culture medium was removed, and the cells were washed with PBS. RIPA lysis buffer containing 1% Protease Inhibitor Cocktail was added. After lysis and centrifugation, a total protein extract was obtained, and the protein concentration in the extract was detected by BCA method. Protein electrophoresis was performed using SDS-PAGE, and then the protein was transferred to a PVDF (Millipore Sigma catalog number PSRP010R5) membrane at a constant voltage of 100V for 60min. The PVDF membrane was placed in a 5% milk powder 1×TBST solution and blocked at room temperature for 1h. The primary antibody solution (Anti-Androgen receptor, Cell Signaling Technology catalog number: 5153S; 1:2000 dilution) was prepared and was incubated at 4°C overnight. The primary antibody solution was discarded and the PVDF membrane was washed with 1×TBST for 5 minutes each time, for three times. The secondary antibody solution (Thermo catalog number SA5-35571; 1:7500 dilution) was prepared and was incubated at room temperature for 1 hour. The secondary antibody solution was discarded and the PVDF membrane was washed with 1×TBST for 5 minutes each time, for three times. A dual-color infrared laser imaging system (Licor catalog number Odyssey CLX) was used for Western membrane imaging. Image Studio software was used to analyze the grayscale of the bands. GAPDH protein bands were also detected for each sample as the reference. The AR protein degradation rate of the compound and the positive control sample was calculated based on the grayscale of the protein bands.
Table 7 Degradation rate of AR protein in VCaP cells by the compounds disclosed in the present invention

The test system of another experiment is VCaP cells. The experiment in a line: Inhibition of VCaP cell proliferation (WST-8). Conditions: Homo sapiens, 168 hours. The procedure:
On the first day of the experiment, VCaP cells were seeded at a density of 15,000 cells/well in a 96-well plate using DMEM medium containing 10% fetal bovine serum, with 100µL of cell suspension per well, and cultured overnight in a cell incubator at 37°C and 5% CO2. On the second day, 100µL of the compound of the present invention and the positive control ARV-110 (source: Anaiji) prepared in culture medium at different concentrations were added to each well. The final concentration of the compound was 9 concentration points of 5-fold serial dilution starting from 10 µM. […] On the ninth day, the 96-well cell culture plate was removed and 1/10 volume of WST-8 (Beytime, C0040) reagent was added to each well. The absorbance at 450nm was measured using a microplate reader (TECAN, F50).

`COc1cc(O[C@H]2C(C)(C)[C@H](NC(=O)c3ccc(N4CCC(CN5CCC6(CC5)COc5c6ccc6c5n(C)c(=O)n6C5CCC(=O)NC5=O)CC4)cc3)C2(C)C)ccc1C#N` (stereo partly shown) [A-P-28] displayed an IC50 with LNCaP cells of 20.7 µM. This molecule displayed a percent AR protein degradation at a fixed concentration at 0.01 µM on AR protein [1] (10 nM) of 64%. This molecule also displayed a percent AR protein degradation at a fixed concentration at 0.1 µM at AR protein [1] (100 nM) of 32%. At AR protein [2] (0.5 nM), this molecule registered an AR protein degradation rate at fixed concentration (%) at 0.0005 µM of 80%. The AR protein degradation rate at fixed concentration (%) at 0.005 µM on AR protein [2] (5 nM) was found to be 80%.

With `C[C@H]1CC2(CCN(c3ccc(N4CCC(CN5CCN6c7cc(F)c(C(=O)N[C@H]8CCC(=O)NC8=O)cc7OC[C@H]6C5)CC4)cc3)CC2)CN1c1ccc(C#N)c(Cl)c1` [A-P-59, (R)-3-((1-(4-((S)-2-(3-chloro-4-cyanophenyl)-3-methyl-2,8-diazaspiro[4.5]decan-8-yl)phenyl)piperidin-4-yl)methyl)-N-((S)-2,6-dioxopiperidin-3-yl)-9-fluoro-1,2,3,4,4a,5-hexahydrobenzo[b]pyrazi no[1,2-d][1,4]oxazine-8-carboxamide], the IC50 in the experiment with VCaP cells worked out at 0.16 µM; in the experiment with LNCaP cells, 0.15 µM.

Take `C[C@H]1CC2(CCN(c3ccc(C(=O)N4CCC(CN5CCN6c7cc(F)c(C(=O)N[C@H]8CCC(=O)NC8=O)cc7OC[C@H]6C5)CC4)cc3)CC2)CN1c1ccc(C#N)c(Cl)c1` [A-P-60]: the IC50 in the experiment on VCaP cells worked out at 0.94 µM; in the experiment on LNCaP cells, 0.69 µM.

As to `COc1cc2c(cc1C(=O)N[C@H]1CCC(=O)NC1=O)OC[C@H]1CN(CC3CCN(c4ccc(N5CCC6(CC5)C[C@H](C)N(c5ccc(C#N)c(Cl)c5)C6)cc4)CC3)CCN21` [A-P-75], the IC50 came out at 0.042 µM in the experiment with VCaP cells and 0.35 µM in the experiment with LNCaP cells.

Consider `COc1cc2c(cc1C(=O)N[C@H]1CCC(=O)NC1=O)OC[C@H]1CN(CC3CCN(C(=O)c4ccc(N5CCC6(CC5)C[C@H](C)N(c5ccc(C#N)c(Cl)c5)C6)cc4)CC3)CCN21` [A-P-76], for which the IC50 in the experiment on VCaP cells is 0.078 µM; with LNCaP cells it was 2.84 µM.

As for `C[C@H]1CC2(CCN(c3ccc(C(=O)N4CCC(CN5CCC6(CC5)COc5cc(NC7CCC(=O)NC7=O)ccc56)CC4)cc3)CC2)CN1c1ccc(C#N)c(Cl)c1` (stereo partly shown) [A-P-87, 2-chloro-4-((3 S)-8-(4-(4-((6-((2,6-dioxopiperidin-3-yl)amino)-2H-spiro[benzofuran-3,4'-piperidin]-1'-yl)methyl)piperidin-1-carbonyl)phenyl)-3-methyl-2,8-diazaspiro[4.5]decan-2-yl)benzonitrile], the IC50 with VCaP cells came to 0.0014 µM; in the experiment with LNCaP cells, 0.14 µM.

As for `C[C@H]1CC2(CCN(c3ccc(C(=O)N4CCC(CN5CCC6(CC5)Cc5ccc(NC7CCC(=O)NC7=O)cc5O6)CC4)cc3)CC2)CN1c1ccc(C#N)c(Cl)c1` (stereo partly drawn) [A-P-94, 2-chloro-4-((3S)-8-(4-(4-((6-((2,6-dioxopiperidin-3-yl)amino)-3H-spiro[benzofuran-2,4'-piperidin]-1'-yl)methyl)piperidin-1-carbonyl)phenyl)-3-methyl-2,8-diazaspiro[4.5]decan-2-yl)benzonitrile], the IC50 amounted to 0.0015 µM in the experiment on VCaP cells and 0.39 µM with LNCaP cells.

As to `C[C@H]1CC2(CCN(c3ccc(C(=O)N4CCC(CN5CCC6(CC5)COc5ccc(NC7CCC(=O)NC7=O)cc56)CC4)cc3)CC2)CN1c1ccc(C#N)c(Cl)c1` (stereo partly shown) [A-P-98, 2-chloro-4-((3 S)-8-(4-(4-((5-((2,6-dioxopiperidin-3-yl)amino)-2H-spiro[benzofuran-3,4'-piperidin]-1'-yl)methyl)piperidin-1-carbonyl)phenyl)-3-methyl-2,8-diazaspiro[4.5]decan-2-yl)benzonitrile], the figures for the IC50 in the experiment on VCaP cells and in the experiment on LNCaP cells were 0.006 µM and 0.43 µM, respectively.

Usually IC50 stands for the concentration needed to halve the response being measured.

(Values after patent EP4722219A1 (Gan & Lee Pharmaceuticals Co., Ltd., priority 2023, dated 2024).)
